Here are results for five compounds from patent publication EP1219631A1, “ANTIANDROGEN AGENTS” (CHUGAI SEIYAKU KABUSHIKI KAISHA, priority 1999, dated 2001).

The target of data set [1] is T1, human androgen receptor (Homo sapiens, UniProt P10275).
T1 construct: expressed in transfected cells; host or cells: HeLa cells
T1 sequence (P10275 1-920): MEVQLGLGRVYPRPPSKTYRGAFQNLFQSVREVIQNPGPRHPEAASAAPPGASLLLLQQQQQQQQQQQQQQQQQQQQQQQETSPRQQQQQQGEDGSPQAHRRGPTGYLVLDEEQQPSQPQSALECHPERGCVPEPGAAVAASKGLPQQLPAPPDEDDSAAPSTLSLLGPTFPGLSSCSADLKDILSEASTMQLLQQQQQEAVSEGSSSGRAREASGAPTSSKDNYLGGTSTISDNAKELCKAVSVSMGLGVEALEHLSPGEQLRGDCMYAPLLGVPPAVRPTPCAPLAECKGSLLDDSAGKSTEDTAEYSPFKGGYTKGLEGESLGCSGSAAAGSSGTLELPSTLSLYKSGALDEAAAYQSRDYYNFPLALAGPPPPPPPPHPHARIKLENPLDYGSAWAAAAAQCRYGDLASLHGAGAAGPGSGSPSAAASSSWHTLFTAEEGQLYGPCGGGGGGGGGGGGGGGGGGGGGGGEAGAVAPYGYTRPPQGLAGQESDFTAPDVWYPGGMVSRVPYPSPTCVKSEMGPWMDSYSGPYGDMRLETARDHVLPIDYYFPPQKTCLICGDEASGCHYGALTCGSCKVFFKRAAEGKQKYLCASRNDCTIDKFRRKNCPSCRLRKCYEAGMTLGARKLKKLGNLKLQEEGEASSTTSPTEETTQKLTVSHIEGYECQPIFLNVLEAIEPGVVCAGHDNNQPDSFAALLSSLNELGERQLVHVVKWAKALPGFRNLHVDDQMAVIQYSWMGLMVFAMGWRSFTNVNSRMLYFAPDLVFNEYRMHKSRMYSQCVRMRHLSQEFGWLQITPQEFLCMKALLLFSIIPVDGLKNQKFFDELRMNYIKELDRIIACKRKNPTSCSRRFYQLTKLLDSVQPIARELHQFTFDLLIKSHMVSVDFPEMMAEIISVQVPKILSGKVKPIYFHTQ
The data set is described as follows: Androgen receptor reporter gene assay, agonist action (MMTV-Luc, pSG5-hAR and Renilla Luc vectors transfected into HeLa cells, dual-luciferase). In kind it is cell-based. As to conditions: for FI5 value: concentration showing a transcriptional activity five times that without compound, tested at 1, 10, 100, 1000 and 10000 nmol/L. The text has this: Speaking of the substance of the invention which acts as antagonist against but not as agonist for the androgen receptor, the expression "not acting as agonist" means that in the following androgen receptor gene assay, the transcriptional activity value of the substance at any concentration of 0.1 nmol/L - 10 µmol/L is from one to five times the transcriptional activity value for no addition of the substance which is taken as unity:
Twenty-four hours before transfection, 1.0 x 10^5 HeLa cells (purchased from Dainippon Pharmaceutical Co., Ltd.) are cultured in phenol red free Dulbecco's modified Eagle medium (DMEM) containing 5% of charcoal-treated FBS (DCC-FBS) in 12-well microplates. Five hundred nanograms/well of MMTV-Luc vector (the reporter plasmid of luciferase having mouse tumor long terminal repeats containing the androgen response element: GM-CAT vector (A.T.C.C. No. 67282) purchased from A.T.C.C. provided that the chloramphenicol acetyl transferase gene was replaced by the firefly luciferase gene), 100 ng/well of pSG5-hAR (the expression vector of the human androgen receptor which harbors the androgen receptor gene under the control of SV40 promoter) and 5 ng/well of Renilla Luc vector (a vector for internal standard incorporating the sea pansy luciferase gene) are transfected into the HeLa cells. The transfection is performed in a liquid culture of the phenol red free DMEM using […] of lipofectoamine (GibcoBRL). Nine hours after the transfection, the liquid culture is replaced by phenol red free DMEM/3% DCC-FBS containing 10 µmol/L of a compound of the invention which is represented by the general formula (I) or the substance of the invention which acts as antagonist against but not as agonist for the androgen receptor. The transcriptional activity value is measured 48 hours after the replacement of the liquid culture. Transcriptional activity is measured with a dual-luciferase reporter assay system (Promega). The transcriptional activity value is defined as the value for firefly luciferase divided by the value for sea pansy luciferase. […] 270, pp. 19998-20003, 1995.
(§1) Twenty-four hours before transfection, 1.0 x 10^5 HeLa cells were cultured in phenol red free DMEM/5% DCC-FBS on 12-well microplates. Five hundred nanograms/well of MMTV-Luc vector, 100 ng/well of pSG5-hAR and 5 ng/well of Renilla Luc vector were transfected into the HeLa cells. The transfection was performed in a liquid culture of the phenol red free DMEM using […] of lipofectoamine. […] The transcriptional activity value was measured 48 hours after the replacement of the liquid culture. Transcriptional activity was measured with a dual-luciferase reporter assay system. The transcriptional activity value was calculated as the value for firefly luciferase divided by the value for sea pansy luciferase.
The compound was added at concentrations of 1, 10, 100, 1000 and 10000 nmol/L. Agonist activity = Transcriptional activity when the compound was added/Transcriptional activity when the compound was not added [formula]

Data set [2] addresses T1, human androgen receptor. As to the kind of experiment: Androgen receptor reporter gene assay, antagonist action against DHT (MMTV-Luc, pSG5/hAR and Renilla Luc vectors transfected into HeLa cells, dual-luciferase). In kind it is cell-based. On the procedure:
The expression "acting as antagonist" means that in the following androgen receptor gene assay, the transcriptional activity value of 0.1 nmol/L of dihydrotestosterone (DHT) is inhibited to 0 - 50% at any concentration of 0.1 nmol/L - 10 µmol/L:
Twenty-four hours before transfection, 1.0 x 10^5 HeLa cells are cultured in phenol red free DMEM/5% DCC-FBS on 12-well microplates. Five hundred nanograms/well of MMTV-Luc vector, 100 ng/well of pSG5/hAR and 5 ng/well of Renilla Luc vector are transfected into the HeLa cells. The transfection is performed in a liquid culture of the phenol red free DMEM using […] of lipofectoamine. Nine hours after the transfection, the liquid culture is replaced by phenol red free DMEM/3% DCC-FBS containing 0.1 nmol/L of DHT and […] of a compound of the invention which is represented by the general formula (I) or the substance of the invention which acts as antagonist against but not as agonist for the androgen receptor. The transcriptional activity value is measured 48 hours after the replacement of the liquid culture. Transcriptional activity is measured with a dual-luciferase reporter assay system. The transcriptional activity value is defined as the value for firefly luciferase divided by the value for sea pansy luciferase. […] 270, pp. 19998-20003, 1995.
as §1, with “pSG5/hAR” for “pSG5-hAR”
The compound was added at concentrations of 1, 10, 100, 1000 and 10000 nmol/L and at each of these concentrations, measurement was done in the presence of DHT (0.1 nmol/L). Antagonist activity = Transcriptional activity when the compound was added/Transcriptional activity when the compound was not added x 100 [formula]

In the next data set the target is androgen receptor (Homo sapiens, UniProt P10275). As to conditions: cited from earlier work.
The conditions of data set [3]: prostate cancer patients under flutamide treatment; cited from earlier work.
The next data set relates to castrated rats. As to conditions: two-week continuous administration; cited from earlier work.

With `CN(C)C(=O)CCCCCCCCCCC1CC2CC(=O)CCC2(C)C2CCC3(C)C(O)CCC3C12` (stereo not drawn) [Example 52], at human androgen receptor [1], the FI5 value entry is listed as “ND (even when the compound was added at a concentration of 10000 nM, the transcriptional activity of the compound-treated group was less than 5 times the transcriptional activity of the control group, making it impossible to compute the FI5 value)”. Also, at human androgen receptor [2], the IC50 worked out at 277 nM.
For the compound `CC12CCC3C(C(CCCCCCCC(=O)NCCc4ccccc4)CC4CC(=O)CCC43C)C1CCC2O` (stereo not drawn) [Example 74], the FI5 value entry on human androgen receptor [1] was “ND (even when the compound was added at a concentration of 10000 nM, the transcriptional activity of the compound-treated group was less than 5 times the transcriptional activity of the control group, making it impossible to compute the FI5 value)”. In addition, the IC50 against human androgen receptor [2] was 2040 nM.
For `CC(C)(O)C(=O)Nc1ccc([N+](=O)[O-])c(C(F)(F)F)c1` [Hydroxyflutamide, hydroxyflutamide], the acting as agonist result on human androgen receptor [1] (at a concentration of 10 µmol/L) was “act as agonist”. The FI5 value at human androgen receptor [1] worked out at 1000 nM. For the same compound, on human androgen receptor [1] (summary of the results of Example 180), the “agonist action for the androgen receptor mediated transcriptional activity” value is reported as “exhibit agonist action”. At human androgen receptor [2] (text of Example 2, with 0.1 nmol/L of DHT, HeLa cells, 48 hours), the “transcriptional activity value of DHT” value is “less than 50%”. For the same compound, the “transcriptional activity of the androgen receptor” value at androgen receptor was “elevated”. Further, the Plasma levels result in data set [3] is “several”.
For the compound `CC(=O)O[C@]1(C(C)=O)CC[C@H]2[C@@H]3C=C(Cl)C4=CC(=O)CC[C@]4(C)[C@H]3CC[C@@]21C` [chlormadinone acetate], in the data set with castrated rats, the prostate weight result is “increased”.
`CC(=O)O[C@]1(C(C)=O)CC[C@H]2[C@@H]3C=C(Cl)C4=CC(=O)[C@@H]5C[C@@H]5[C@]4(C)[C@H]3CC[C@@]21C` [cyproterone acetate]: the prostate weight entry in the data set with castrated rats is “increased”.
